# Measurements as given in PMC8371902, “Phase 1 study of M2698, a p70S6K/AKT dual inhibitor, in patients with advanced cancer” (Journal of Hematology & Oncology, 2021).
# Tests used:
# [1] = Monotherapy population PK model (two-compartment); settings: in vivo
# From the text: (§1) A monotherapy population PK model was developed, consisting of a two-compartment model with four absorption transit compartments and first-order elimination (Additional file 1: Table S5).
# [2] = Plasma pharmacokinetics of M2698, non-compartmental; assay type: in vivo, human
# Protocol: Plasma PK parameters on days 1 and 15 were calculated using non-compartmental methods.
# [3] = system: phospho-S6 (pS6) in tumor tissue; test: pS6 in tumor biopsies by immunohistochemistry, PK/PD models; assay type: in vivo, human
# From the text: Supplementary Table S7. Parameter estimates for pharmacokinetic/ pharmacodynamic models of pS6 in tumor tissue using dose and area under the curve (AUCT, calculated as dose divided by apparent clearance at time of tissue biopsy) as exposure metrics
# log-linear regression model of dose – tumor pS6: y ~ slope *log(Dose)
# Emax regression model of AUC – tumor pS6: y ~ (Emax *AUC) / (EC50 + AUC)
# [4] = in vivo
# From the text: as §1
# [5] = design: method as in PMID 27186432; settings: preclinical studies ref 21; cited from earlier work
# pS6 in tumor tissue = system: pS6 in tumor tissue; design: method as in PMID 27186432; settings: preclinical ref 21; cited from earlier work
# [6] = day 1 single dose, monotherapy 15 mg, n=3
# [7] = day 1 single dose, monotherapy 30 mg, n=3
# [8] = day 1 single dose, monotherapy 60 mg, n=6
# [9] = day 1 single dose, monotherapy 75 mg, n=4
# [10] = day 1 single dose, monotherapy 110 mg, n=3
# [11] = day 1 single dose, monotherapy 160 mg, n=5
# [12] = day 1 single dose, monotherapy 200 mg, n=3
# [13] = day 1 single dose, monotherapy 240 mg, n=9
# [14] = day 1 single dose, monotherapy 320 mg, n=7
# [15] = day 1 single dose, monotherapy 380 mg, n=4
# [16] = day 15, combination with tamoxifen, M2698 80 mg, n=2
# [17] = day 15, combination with tamoxifen, M2698 160 mg, n=5
# [18] = day 15, combination with tamoxifen, M2698 200 mg, n=6
# [19] = day 15, combination with tamoxifen, M2698 240 mg (intermittent regimen), n=4
# [20] = day 15, combination with trastuzumab, M2698 80 mg, n=3
# [21] = day 15, combination with trastuzumab, M2698 160 mg, n=7
# [22] = day 15, monotherapy 110 mg, n=3
# [23] = day 15, monotherapy 160 mg, n=5
# [24] = day 15, monotherapy 200 mg, n=3
# [25] = day 15, monotherapy 240 mg, n=7
# [26] = day 15, monotherapy 320 mg, n=6
# [27] = day 15, monotherapy 380 mg, n=2
smiles,measurement,setting,value
NC(=O)c1cccc2c(N[C@H](CN3CCC3)c3ccc(Cl)c(C(F)(F)F)c3)ncnc12 [M2698],"ALB on Vc, population PK estimate",[1],0.0247
same,"BSA on Vc, population PK estimate",[1],1.17
same,"CL (clearance), population PK estimate",[1],7.06 L/h
same,"KA (absorption rate constant), population PK estimate",[1],2.02 h⁻¹
same,"Q (flow rate), population PK estimate",[1],18.0 L/h
same,"Vc (volume of distribution of the central compartment), population PK estimate",[1],292 L
same,"Vp (volume of distribution of the peripheral compartment), population PK estimate",[1],53.0 L
same,"AUC0–24, Geo mean (GeoCV%)",[2]; [6],759 (67.2) ng∙h/mL
same,"Cmax, GeoMean (GeoCV%)",[2]; [6],53.0 (91.1) ng/mL
same,"tmax, median (range)",[2]; [6],3.08 (2.07–5.00) hours
same,"AUC0–24, Geo mean (GeoCV%)",[2]; [7],1480 (52.9) ng∙h/mL
same,"Cmax, GeoMean (GeoCV%)",[2]; [7],87.3 (55.9) ng/mL
same,"tmax, median (range)",[2]; [7],4.00 (3.97–5.17) hours
same,"AUC0–24, Geo mean (GeoCV%)",[2]; [8],2730 (36.3) ng∙h/mL
same,"Cmax, GeoMean (GeoCV%)",[2]; [8],177 (38.3) ng/mL
same,"tmax, median (range)",[2]; [8],4.08 (2.05–5.00) hours
same,"AUC0–24, Geo mean (GeoCV%)",[2]; [9],4370 (85.2) ng∙h/mL
same,"Cmax, GeoMean (GeoCV%)",[2]; [9],269 (114.4) ng/mL
same,"tmax, median (range)",[2]; [9],4.83 (2.98–9.50) hours
same,"AUC0–24, Geo mean (GeoCV%)",[2]; [10],4200 (21.0) ng∙h/mL
same,"Cmax, GeoMean (GeoCV%)",[2]; [10],246 (21.7) ng/mL
same,"tmax, median (range)",[2]; [10],6.08 (5.98–24.3) hours
same,"AUC0–24, Geo mean (GeoCV%)",[2]; [11],8650 (49.8) ng∙h/mL
same,"Cmax, GeoMean (GeoCV%)",[2]; [11],543 (65.3) ng/mL
same,"tmax, median (range)",[2]; [11],4.05 (2.15–5.23) hours
same,"AUC0–24, Geo mean (GeoCV%)",[2]; [12],8180 (102.8) ng∙h/mL
same,"Cmax, GeoMean (GeoCV%)",[2]; [12],472 (110.1) ng/mL
same,"tmax, median (range)",[2]; [12],4.60 (4.07–5.02) hours
same,"AUC0–24, Geo mean (GeoCV%)","[2]; day 1 single dose, monotherapy 240 mg, n=8 for AUC",9200 (74.5) ng∙h/mL
same,"Cmax, GeoMean (GeoCV%)",[2]; [13],590 (81.4) ng/mL
same,"tmax, median (range)",[2]; [13],6.25 (4.00–24.3) hours
same,"AUC0–24, Geo mean (GeoCV%)","[2]; day 1 single dose, monotherapy 320 mg, n=6 for AUC",15200 (104.0) ng∙h/mL
same,"Cmax, GeoMean (GeoCV%)",[2]; [14],802 (112.0) ng/mL
same,"tmax, median (range)",[2]; [14],4.73 (4.00–24.1) hours
same,"AUC0–24, Geo mean (GeoCV%)","[2]; day 1 single dose, monotherapy 380 mg, n=2 for AUC",16500 (36.6) ng∙h/mL
same,"Cmax, GeoMean (GeoCV%)",[2]; [15],1320 (55.0) ng/mL
same,"tmax, median (range)",[2]; [15],6.28 (4.12–9.52) hours
same,"AUC0–τ, Geo mean (GeoCV%)",[2]; [16],"16,000 (44.7) ng∙h/mL"
same,"Accumulation ratio (Cmax), Geo mean (GeoCV%)",[2]; [16],2.31 (20.6)
same,"Cmax, GeoMean (GeoCV%)",[2]; [16],819 (50.9) ng/mL
same,"tmax, median (range)",[2]; [16],4.5 (4.00–5.00) hours
same,"AUC0–τ, Geo mean (GeoCV%)",[2]; [17],"22,000 (42.9) ng∙h/mL"
same,"Accumulation ratio (Cmax), Geo mean (GeoCV%)",[2]; [17],1.98 (26.6)
same,"Cmax, GeoMean (GeoCV%)",[2]; [17],1270 (48.3) ng/mL
same,"tmax, median (range)",[2]; [17],3.33 (2.95–5.58) hours
same,"AUC0–τ, Geo mean (GeoCV%)",[2]; [18],"27,000 (29.3) ng∙h/mL"
same,"Accumulation ratio (Cmax), Geo mean (GeoCV%)",[2]; [18],3.47 (65.7)
same,"Cmax, GeoMean (GeoCV%)",[2]; [18],1380 (31.3) ng/mL
same,"tmax, median (range)",[2]; [18],3.98 (3.07–10.0) hours
same,"AUC0–τ, Geo mean (GeoCV%)",[2]; [19],"20,600 (41.7) ng∙h/mL"
same,"Accumulation ratio (Cmax), Geo mean (GeoCV%)",[2]; [19],1.7 (40.9)
same,"Cmax, GeoMean (GeoCV%)",[2]; [19],1110 (39.9) ng/mL
same,"tmax, median (range)",[2]; [19],3.15 (2.13–4.00) hours
same,"AUC0–τ, Geo mean (GeoCV%)",[2]; [20],7400 (34.3) ng∙h/mL
same,"Accumulation ratio (Cmax), Geo mean (GeoCV%)",[2]; [20],2.00 (26.1)
same,"Cmax, GeoMean (GeoCV%)",[2]; [20],405 (23.7) ng/mL
same,"tmax, median (range)",[2]; [20],3.07 (2.03–5.58) hours
same,"AUC0–τ, Geo mean (GeoCV%)",[2]; [21],"47,200 (49.3) ng∙h/mL"
same,"Accumulation ratio (Cmax), Geo mean (GeoCV%)",[2]; [21],2.73 (31.5)
same,"Cmax, GeoMean (GeoCV%)",[2]; [21],2560 (52.8) ng/mL
same,"tmax, median (range)",[2]; [21],5.88 (3.05–8.08) hours
same,"AUC0–τ, Geo mean (GeoCV%)","[2]; day 15, monotherapy 15 mg, n=3",2540 (6.0) ng∙h/mL
same,"Accumulation ratio (Cmax), Geo mean (GeoCV%)","[2]; day 15, monotherapy 15 mg, n=3",2.57 (73.6)
same,"Cmax, GeoMean (GeoCV%)","[2]; day 15, monotherapy 15 mg, n=3",136 (16.8) ng/mL
same,"tmax, median (range)","[2]; day 15, monotherapy 15 mg, n=3",3.00 (2.97–7.50) hours
same,"AUC0–τ, Geo mean (GeoCV%)","[2]; day 15, monotherapy 30 mg, n=3",5410 (17.8) ng∙h/mL
same,"Accumulation ratio (Cmax), Geo mean (GeoCV%)","[2]; day 15, monotherapy 30 mg, n=3",3.19 (41.2)
same,"Cmax, GeoMean (GeoCV%)","[2]; day 15, monotherapy 30 mg, n=3",279 (14.5) ng/mL
same,"tmax, median (range)","[2]; day 15, monotherapy 30 mg, n=3",4.30 (1.93–6.02) hours
same,"AUC0–τ, Geo mean (GeoCV%)","[2]; day 15, monotherapy 60 mg, n=5","10,000 (47.7) ng∙h/mL"
same,"Accumulation ratio (Cmax), Geo mean (GeoCV%)","[2]; day 15, monotherapy 60 mg, n=5",3.03 (60.4)
same,"Cmax, GeoMean (GeoCV%)","[2]; day 15, monotherapy 60 mg, n=5",566 (48.5) ng/mL
same,"tmax, median (range)","[2]; day 15, monotherapy 60 mg, n=5",5.07 (3.03–7.62) hours
same,"AUC0–τ, Geo mean (GeoCV%)","[2]; day 15, monotherapy 75 mg, n=4",9440 (39.6) ng∙h/mL
same,"Accumulation ratio (Cmax), Geo mean (GeoCV%)","[2]; day 15, monotherapy 75 mg, n=4",3.02 (3.2)
same,"Cmax, GeoMean (GeoCV%)","[2]; day 15, monotherapy 75 mg, n=4",533 (47.5) ng/mL
same,"tmax, median (range)","[2]; day 15, monotherapy 75 mg, n=4",4.05 (4.03–5.12) hours
same,"AUC0–τ, Geo mean (GeoCV%)",[2]; [22],"15,500 (46.8) ng∙h/mL"
same,"Accumulation ratio (Cmax), Geo mean (GeoCV%)",[2]; [22],3.38 (55.6)
same,"Cmax, GeoMean (GeoCV%)",[2]; [22],831 (43.3) ng/mL
same,"tmax, median (range)",[2]; [22],6.05 (3.00–6.07) hours
same,"AUC0–τ, Geo mean (GeoCV%)",[2]; [23],"23,700 (43.7) ng∙h/mL"
same,"Accumulation ratio (Cmax), Geo mean (GeoCV%)",[2]; [23],2.40 (36.8)
same,"Cmax, GeoMean (GeoCV%)",[2]; [23],1300 (45.1) ng/mL
same,"tmax, median (range)",[2]; [23],4.08 (1.93–6.00) hours
same,"AUC0–τ, Geo mean (GeoCV%)",[2]; [24],"28,400 (91.6) ng∙h/mL"
same,"Accumulation ratio (Cmax), Geo mean (GeoCV%)",[2]; [24],3.21 (63.5)
same,"Cmax, GeoMean (GeoCV%)",[2]; [24],1520 (100.8) ng/mL
same,"tmax, median (range)",[2]; [24],3.77 (3.50–4.05) hours
same,"AUC0–τ, Geo mean (GeoCV%)",[2]; [25],"31,300 (55.8) ng∙h/mL"
same,"Accumulation ratio (Cmax), Geo mean (GeoCV%)",[2]; [25],2.51 (77.8)
same,"Cmax, GeoMean (GeoCV%)",[2]; [25],1920 (48.5) ng/mL
same,"tmax, median (range)",[2]; [25],4.00 (2.95–6.10) hours
same,"AUC0–τ, Geo mean (GeoCV%)",[2]; [26],"39,700 (52.3) ng∙h/mL"
same,"Accumulation ratio (Cmax), Geo mean (GeoCV%)",[2]; [26],2.12 (67.9)
same,"Cmax, GeoMean (GeoCV%)",[2]; [26],2110 (39.6) ng/mL
same,"tmax, median (range)",[2]; [26],5.48 (3.57–6.08) hours
same,"AUC0–τ, Geo mean (GeoCV%)",[2]; [27],"41,400 (34.5) ng∙h/mL"
same,"Accumulation ratio (Cmax), Geo mean (GeoCV%)",[2]; [27],2.20 (97.9)
same,"Cmax, GeoMean (GeoCV%)",[2]; [27],2490 (9.4) ng/mL
same,"tmax, median (range)",[2]; [27],2.50 (2.00–3.00) hours
same,Area under the curve on day 15,[2]; highest doses of 240–380 mg,"> 30,000 ng h/mL"
same,Pharmacokinetic profile combined with tamoxifen versus monotherapy,[2]; in vivo,similar
same,Accumulation on day 15 after repeated doses,[2]; monotherapy,2.12–3.38 fold
same,Apparent oral clearance (CL/f),[2]; monotherapy,~ 6 L/h
same,Terminal half-life,[2]; monotherapy,~ 30 h
same,Median time to maximum plasma concentration (tmax),"[2]; monotherapy, across doses",3.08 to 6.28 h
same,Dose proportionality of M2698 exposure,"[2]; monotherapy, single and multiple administrations",exposure increased proportionally with dose
same,M2698 exposure in combination with trastuzumab,[2]; versus monotherapy,relatively higher
same,AUC giving 70% inhibition of pS6 in tumor tissue,[3]; Emax model,"15,174 h.ng/mL"
same,AUC giving 80% inhibition of pS6 in tumor tissue,[3]; Emax model,"32,087 h.ng/mL"
same,Dose giving 70% inhibition of pS6 in tumor tissue,[3]; log-linear regression model,~ 160 mg
same,Dose giving 80% inhibition of pS6 in tumor tissue,[3]; log-linear regression model,~240 mg
same,Inhibition of pS6 levels in tumor tissue,"[3]; paired biopsies, 28 patients",dose- and concentration-dependent inhibition
same,"Additive RSV (residual variability), population PK estimate",[4],3.44
same,"Proportional RSV (residual variability), population PK estimate",[4],0.163
same,Blood–brain barrier crossing,[5],capacity to cross the blood–brain barrier
same,Inhibition of pS6 in tumor tissue,pS6 in tumor tissue,dose-dependently inhibits pS6 in tumor tissue
